{"source": "patent US4918073A", "about": "“Diarylalkyl-substituted alkylamines and medicaments containing them” (Hoechst Aktiengesellschaft, priority 1986, dated 1990)", "key": {"[1]": {"molecular_target": "3H-nitrendipine binding, membrane preparation from the cortex of the rat brain", "assay": "displacement of tritium-labeled nitrendipine from rat brain cortex membranes (calcium-antagonistic activity)", "conditions": "3H-nitrendipine 0.1 nM, TRIS buffer pH 7.4, 25° C., 60 minutes; read-out: IC50 (displacement of 50% of the radioactively labeled nitrendipine)", "experimental": "This test was carried out in a membrane preparation obtained from the cortex of the rat brain and washed several times, the method described by R. J. Gould et al. (Proc. Natl. Acad. Sci. U.S.A. 79, 3656 [1982]) essentially being used. […] The membrane fractions were separated off by vacuum filtration over Whatman-GF/F glass fiber filters and the radioactivity was measured in a liquid scintillation counter. […] The IC50 value, i.e. the concentration of test substance which is capable of displacing 50% of the radioactively labeled nitrendipine, is determined as the characteristic parameter."}, "isolated guineapig heart": {"tested_on": "isolated guineapig heart", "assay": "coronary circulation on the isolated guineapig heart (Langendorff)", "conditions": "Cavia porcellus, vs control hearts; for activation at 0.0001 mg: dose 0.1 μg via feed tube; for activation at 0.0005 mg: dose 0.5 μg via feed tube", "experimental": "For this test, female heparinized (2.5 mg of heparin sodium intraperitoneally 1 hour before sacrifice) guineapigs (220-250 g) were sacrificed by a blow on the neck. Immediately after the thorax has been opened, cardiac arrest was induced by cooling the heart with icecold saline solution. The ascending aorta was catheterized and connected to a non-recirculating perfusion system (hydrostatic pressure 65 cm of H2 O) in accordance with the method of Langendorff. Exposure of the heart was folowed by a perfusion period of 30 minutes for adaptation of the heart to the isolated state. A modified Krebs-Henseleit bicarbonate solution (113.8 mM NaCl, 22.0 mM NaHCO3, 4.7 mM KCl, 1.2 mM KH2 PO4, 1.1 mM MgSO4 ×7 H2 O and 2.5 mM CaCl2 ×2 H2 O, equilibrated with 95% of O2 and 5% of CO2, pH 7.41, 38° C.) was used as the perfusate. Glucose (11 mM) and sodium pyruvate (2.0 mM) were added. The osmolality of the perfusate was kept constant by adjusting the amount of NaCl. The hearts were loaded with a resting voltage of 2 pond (p). The heart rate and contraction force were recorded isometrically and the equipment for this (Hellige GmbH, Freiburg, Germany) were calibrated to 2 p. The coronary flow was determined with the aid of a drop counter, 7 drops corresponding to 1 ml. The values stated are expressed as the percentage increase in coronary circulation after administration of the test substance in the stated dosage via a feed tube (0.1% strength solution in propanediol), based on control hearts without addition of the test substance. The following table contains some of the values measured:\n(a) mean value of 28 measurements\n(b) the values stated result from in each case two measurements."}, "[2]": {"conditions": "values from in each case two measurements, read-out: Increase in coronary circulation"}}, "note": "Like-named read-outs stand apart in the source and are kept apart here.", "data": [{"smiles": "O=C(O)C1CN(CCCC(c2ccc(F)cc2)c2ccc(F)cc2)CCN1CCOc1cccc2ccccc12", "note": "(centres unmarked) [Example 61]", "values": [{"measurement": "IC50", "setting": "[1]", "result": 0.06, "unit": "µM"}]}, {"smiles": "Fc1ccc(C(CCCN2CCN(CCOc3cccc(C(F)(F)F)c3)CC2)c2ccc(F)cc2)cc1", "note": "[Example 68]", "values": [{"measurement": "IC50", "setting": "[1]", "result": 0.0009, "unit": "µM"}, {"measurement": "activation at 0.0001 mg", "setting": "isolated guineapig heart; [2]", "result": "20 to 29", "unit": "%"}]}, {"smiles": "CC(=O)c1cccc(OCCN2CCN(CCCC(c3ccc(F)cc3)c3ccc(F)cc3)CC2)c1", "note": "[Example 64]", "values": [{"measurement": "IC50", "setting": "[1]", "result": 0.019, "unit": "µM"}]}, {"smiles": "Fc1ccc(C(CCCN2CCC(CCOc3ccccc3C(F)(F)F)CC2)c2ccc(F)cc2)cc1", "note": "[Example 73]", "values": [{"measurement": "IC50", "setting": "[1]", "result": 0.0012, "unit": "µM"}]}, {"smiles": "Fc1ccc(C(CCCN2CCN(CCOc3ccccc3C(F)(F)F)CC2)c2ccc(F)cc2)cc1", "note": "[Example 67]", "values": [{"measurement": "activation at 0.0001 mg", "setting": "isolated guineapig heart; [2]", "result": "5 to 21", "unit": "%"}, {"measurement": "activation at 0.0005 mg", "setting": "isolated guineapig heart; [2]", "result": "23 to 35", "unit": "%"}]}, {"smiles": "O=[N+]([O-])c1ccc(OCCN2CCN(CCCC(c3ccc(F)cc3)c3ccc(F)cc3)CC2)cc1", "note": "[Example 41]", "values": [{"measurement": "IC50", "setting": "[1]", "result": 0.0085, "unit": "µM"}]}, {"smiles": "CC(C)(C)c1ccc(OCCN2CCN(CCCC(c3ccc(F)cc3)c3ccc(F)cc3)CC2)cc1", "note": "[Example 46]", "values": [{"measurement": "activation at 0.0001 mg", "setting": "isolated guineapig heart; [2]", "result": "12 to 23", "unit": "%"}, {"measurement": "activation at 0.0005 mg", "setting": "isolated guineapig heart; [2]", "result": "21 to 36", "unit": "%"}]}, {"smiles": "COc1ccc(OCCN2CCN(CCCC(c3ccc(F)cc3)c3ccc(F)cc3)CC2)cc1", "note": "[Example 42]", "values": [{"measurement": "activation at 0.0005 mg", "setting": "isolated guineapig heart; [2]", "result": "20 to 29", "unit": "%"}]}, {"smiles": "Fc1ccc(C(CCCN2CCN(CCOc3cccc4ccccc34)CC2)c2ccc(F)cc2)cc1", "note": "[Example 18, 1-[4,4-bis(4-fluorophenyl)butyl]-4-[2-(1-naphthyloxy)ethyl]piperazine]", "values": [{"measurement": "IC50", "setting": "[1]", "result": 0.048, "unit": "µM"}]}, {"smiles": "Fc1ccc(C(CCCN2CCN(CCOC3CCCCC3)CC2)c2ccc(F)cc2)cc1", "note": "[Example 16, 1-[4,4-bis(4-fluorophenyl)butyl]-4-[(2-cyclohexoxy)-ethyl]piperazine]", "values": [{"measurement": "IC50", "setting": "[1]", "result": 0.022, "unit": "µM"}]}, {"smiles": "Fc1ccc(C(CCCN2CCN(CCOc3cc(C(F)(F)F)cc(C(F)(F)F)c3)CC2)c2ccc(F)cc2)cc1", "note": "[Example 69]", "values": [{"measurement": "IC50", "setting": "[1]", "result": 0.002, "unit": "µM"}]}, {"smiles": "Cc1ccc(OCCN2CCN(CCCC(c3ccc(F)cc3)c3ccc(F)cc3)CC2)cc1", "note": "[Example 17]", "values": [{"measurement": "IC50", "setting": "[1]", "result": 0.012, "unit": "µM"}, {"measurement": "activation at 0.0001 mg", "setting": "isolated guineapig heart; [2]", "result": "14 to 17", "unit": "%"}, {"measurement": "activation at 0.0005 mg", "setting": "isolated guineapig heart; [2]", "result": "33 to 38", "unit": "%"}]}, {"smiles": "Fc1ccc(C(CCCN2CCN(CCCCOc3cccc4cnccc34)CC2)c2ccc(F)cc2)cc1", "note": "[Example 22]", "values": [{"measurement": "IC50", "setting": "[1]", "result": 0.085, "unit": "µM"}]}, {"smiles": "Fc1ccc(C(CCCN2CCC(CCOc3ccc(C(F)(F)F)cc3)CC2)c2ccc(F)cc2)cc1", "note": "[Example 71]", "values": [{"measurement": "IC50", "setting": "[1]", "result": 0.0042, "unit": "µM"}]}, {"smiles": "CN(C)S(=O)(=O)c1ccc(OCCN2CCN(CCCC(c3ccc(F)cc3)c3ccc(F)cc3)CC2)cc1", "note": "[Example 83]", "values": [{"measurement": "IC50", "setting": "[1]", "result": 0.07, "unit": "µM"}]}, {"smiles": "Fc1ccc(C(CCCN2CCN(CCOc3c(Cl)cccc3Cl)CC2)c2ccc(F)cc2)cc1", "note": "[Example 62]", "values": [{"measurement": "activation at 0.0001 mg", "setting": "isolated guineapig heart; [2]", "result": "9 to 13", "unit": "%"}]}, {"smiles": "Fc1cccc(C(CCCN2CCN(CCOc3cccc4cnccc34)CC2)c2cccc(F)c2)c1", "note": "[Example 36]", "values": [{"measurement": "IC50", "setting": "[1]", "result": 0.09, "unit": "µM"}]}, {"smiles": "NC(=O)C1CN(CCOc2ccccc2)CCN1CCCC(c1ccc(F)cc1)c1ccc(F)cc1", "note": "(centres unmarked) [Example 56]", "values": [{"measurement": "IC50", "setting": "[1]", "result": 0.18, "unit": "µM"}, {"measurement": "activation at 0.001 mg", "setting": "isolated guineapig heart; dose 1.0 μg via feed tube, values from in each case two measurements, read-out: Increase in coronary circulation", "result": "40 to 65", "unit": "%"}]}, {"smiles": "CN(CCCC(c1ccc(F)cc1)c1ccc(F)cc1)C1CCN(CCOc2cccc3cnccc23)CC1", "note": "[Example 37]", "values": [{"measurement": "IC50", "setting": "[1]", "result": 0.4, "unit": "µM"}]}, {"smiles": "Fc1ccc(C(CCCN2CCN(CCOc3cccc4ncccc34)CC2)c2ccc(F)cc2)cc1", "note": "[Example 28]", "values": [{"measurement": "IC50", "setting": "[1]", "result": 0.065, "unit": "µM"}]}, {"smiles": "CCOC(=O)c1ccc(OCCN2CCN(CCCC(c3ccc(F)cc3)c3ccc(F)cc3)CC2)cc1", "note": "[Example 70]", "values": [{"measurement": "activation at 0.0005 mg", "setting": "isolated guineapig heart; [2]", "result": "36 to 52", "unit": "%"}]}, {"smiles": "Fc1ccc(OCCN2CCN(CCCC(c3ccc(F)cc3)c3ccc(F)cc3)CC2)cc1", "note": "[Example 45]", "values": [{"measurement": "IC50", "setting": "[1]", "result": 0.011, "unit": "µM"}, {"measurement": "activation at 0.0001 mg", "setting": "isolated guineapig heart; [2]", "result": "13 to 26", "unit": "%"}, {"measurement": "activation at 0.0005 mg", "setting": "isolated guineapig heart; [2]", "result": "38 to 57", "unit": "%"}]}, {"smiles": "Fc1ccc(C(CCCN2CCC(CCOc3cccc4cnccc34)CC2)c2ccc(F)cc2)cc1", "note": "[Example 32]", "values": [{"measurement": "IC50", "setting": "[1]", "result": 0.012, "unit": "µM"}]}, {"smiles": "Fc1ccc(C(CCCN2CCC(CCOc3cccc(C(F)(F)F)c3)CC2)c2ccc(F)cc2)cc1", "note": "[Example 74]", "values": [{"measurement": "IC50", "setting": "[1]", "result": 0.001, "unit": "µM"}]}, {"smiles": "Cc1cccc(C)c1NC(=O)CN1CCN(CCCC(c2ccc(F)cc2)c2ccc(F)cc2)CC1", "note": "[Lidoflazine, reference compound]", "values": [{"measurement": "IC50", "setting": "[1]", "result": 0.43, "unit": "µM"}]}, {"smiles": "Fc1ccc(C(CCCN2CCN(CCOc3ccc(C(F)(F)F)cc3)CC2)c2ccc(F)cc2)cc1", "note": "[Example 50]", "values": [{"measurement": "IC50", "setting": "[1]", "result": 0.004, "unit": "µM"}, {"measurement": "activation at 0.0001 mg", "setting": "isolated guineapig heart; mean value of 28 measurements, read-out: Increase in coronary circulation (mean value)", "result": 38, "unit": "%"}]}, {"smiles": "CC(=O)c1ccccc1OCCN1CCN(CCCC(c2ccc(F)cc2)c2ccc(F)cc2)CC1", "note": "[Example 66]", "values": [{"measurement": "IC50", "setting": "[1]", "result": 0.012, "unit": "µM"}]}, {"smiles": "Fc1ccc(C(CCCN2CCN(CCOc3ccc(Br)cc3)CC2)c2ccc(F)cc2)cc1", "note": "[Example 81]", "values": [{"measurement": "IC50", "setting": "[1]", "result": 0.0036, "unit": "µM"}]}, {"smiles": "CSc1ccc(OCCN2CCN(CCCC(c3ccc(F)cc3)c3ccc(F)cc3)CC2)cc1", "note": "[Example 75]", "values": [{"measurement": "IC50", "setting": "[1]", "result": 0.009, "unit": "µM"}]}]}
